Data: patent US8178544B2, “2, 3-diamino-quinazolinone derivatives and their medical use” (Neurosearch A/S, priority 2007, dated 2012)

Biological target: T1, human Kv7.2+Kv7.3 channels (Homo sapiens, UniProt O43525+O43526)
T1 construct: expressed in transfected cells; host or cells: HEK293
Assay: Patch-clamp on HEK293 cell lines stably expressing human Kv7.2+Kv7.3 channels
Assay type: cell-based
Conditions: current relative to baseline current defined as 100%, HEK293 cells, test concentration not given
Source text: The effect obtained by these channel activators is described as a percentage increase in baseline current at a given concentration. The baseline current is defined as 100%, and an increase in current is expressed relative to this, i.e. an increase from 1 nA to 1.2 nA is reported as 120%.

| IK (%) at −30 mV, 1 s | SMILES |
| --- | --- |
| 143% | CC(C(=O)Nn1c(N(C)C)nc2cc(C(F)(F)F)ccc2c1=O)c1cc(F)cc(F)c1 (stereo not shown) [Compound C5, 2-(3,5-Difluoro-phenyl)-N-(2-dimethylamino-4-oxo-7-trifluoromethyl-4H-quinazolin-3yl)-propionamide] |
| 144% | CCN(CC)c1nc2ccccc2c(=O)n1NC(=O)Cc1ccc(Cl)cc1 [Compound C3, 2-(4-Chloro-phenyl)-N-(2-diethylamino-4-oxo-4H-quinazolin-3-yl)-acetamide] |
| 215% | CCN(CC)c1nc2ccc(F)cc2c(=O)n1NC(=O)Cc1cc(F)cc(F)c1 [Compound C19, N-(2-Diethylamino-6-fluoro-4-oxo-4H-quinazolin-3-yl)-2-(3,5-difluoro-phenyl)-acetamide] |
| 150% | O=C(Cc1cc(F)cc(F)c1)Nn1c(N2CCCC2)nc2ccccc2c1=O [Compound C1, 2-(3,5-Difluoro-phenyl)-N-(4-oxo-2-pyrrolidin-1-yl-4H-quinazolin-3-yl)-acetamide] |
| 110% | CCN(CC)c1nc2ccc(O)cc2c(=O)n1NC(=O)Cc1cc(F)cc(F)c1 [Compound F1, N-(2-Diethylamino-6-hydroxy-4-oxo-4H-quinazolin-3-yl)-2-(3,5-difluoro-phenyl)-acetamide] |
| 290% | CCN(CC)c1nc2ccccc2c(=O)n1NC(=O)Cc1cc(F)cc(F)c1 [Compound D2, N-(2-Diethylamino-4-oxo-4H-quinazolin-3-yl)-2-(3,5-difluoro-phenyl)-acetamide] |
| 153% | O=C(Cc1ccc(C(F)(F)F)c(F)c1)Nn1c(N2CCCC2)nc2ccccc2c1=O [Compound C11, 2-(3-Fluoro-4-trifluoromethyl-phenyl)-N-(4-oxo-2-pyrrolidin-1-yl-4H-quinazolin-3-yl)-acetamide] |
